The values that follow come from US12622899B2 (PureTech LYT 100, Inc., priority 2018, dated 2026).

Series [1] concerns rat BLM induced lung fibrosis model. In words: Rat bleomycin induced lung fibrosis model, Phase II (efficacy). To be noted: bleomycin rats, LYT-100 400 mg/kg QD / nintedanib 60 mg/kg BID.
Description: For Groups 4, 5, 6, and 7, bleomycin and vehicle dosing were conducted as indicated in Table 28 (0.45 mg/kg, at 1696 IU/mg of Bleomycin or saline on Day 1, 2, 3, 6 and 7).
For series [2], the target named is T1, CYP2D6 (Homo sapiens, UniProt P10635).
T1 construct: host or cells: heterologous cell systems (not specified)
In words: In vitro stability with recombinant human CYP2D6. To be noted: recombinant human isozyme; read-out: t1/2 following incubation with CYP2D6 (converted). It counts as in vitro ADME. Here is the method: (§1) The half-life (t½) of each test article was determined.

The subject of series [3] is older, healthy subjects. In words: Crossover study Part 2: safety and tolerability (TEAEs), fed and fasted. The series is classed as in vivo, human. The text has this:
Over-encapsulation was utilized to maintain study blind. […] Approximately 50 older healthy female and male adult subjects (1:1 ratio) were randomized into 1 of 2 cohorts:Cohort 1 or Cohort 2, N=˜25 subjects per cohort. Subjects in each cohort were randomized to treatment sequence as follows: • Sequence A: Pirfenidone to LYT-100 • Sequence B: LYT-100 to pirfenidone

Series [4] can be described thus: clinical. To be noted: both sexes, human, in vivo, 550 mg. Here is the method: Over-encapsulation was utilized to maintain study blind. […] Approximately 50 older healthy female and male adult subjects (1:1 ratio) were randomized into 1 of 2 cohorts:Cohort 1 or Cohort 2, N=˜25 subjects per cohort.
There was a single AM fasting dose on Day 4 for both drugs. There was a 6-day wash-out period between drug cross-over.
Subjects were discharged on Day 4 following successful completion of all assessments and at the Investigator's discretion.
Subjects were then administered a single dose of their randomized treatment on the morning of Day 14 following an overnight fast of at least 8 hours. Subjects were discharged on Day 14 following successful completion of all assessments and at the Investigator's discretion.
An evening snack was served ≥3 hours following evening study medication administration. On Day 4 (Treatment Period 1) and Day 14 (Treatment Period 2), subjects were administered their assigned study drug once in the morning following an overnight fast of at least 8 hours (with approximately 240 mL of non-carbonated water). No additional fluids were allowed during the 1 hour pre- and post-dose.
Blood samples for PK were collected for Cohorts 1 and 2 at specified times during both periods, as follows: • Days 1 & 11:0 (pre-morning dose) • Days 2 & 12: no sampling. • Days 3 & 13:0 (pre-morning dose), and 1, 2, 3, 4, 6 (pre-mid-day dose), 7, 8, 9, 10, 12 (pre-evening dose), 13, 14, 15, 16, and 17 hours post-morning dose • Days 4 & 14:0 (pre-morning dose), and 1, 2, 3, 4, 6 (post-dose),

The subject of series [5] is patients with Idiopathic Pulmonary Fibrosis (IPF). Description: IPF trial Part A: clinical laboratory parameters, liver. It counts as in vivo, human. The note with it: 801 mg TID (N = 63), N1 62.
Series [6] concerns patients with IPF. To be noted: cited from earlier work; for patients with IPF progression (decline ≥10% in % FVC or death over 52 weeks): Nathan 2018.
In series [7] the test system is patients with Idiopathic Pulmonary Fibrosis (IPF). In words: IPF trial Part A: safety and tolerability (TEAEs, AESI, dose modifications, discontinuations). The note with it: 801 mg TID (N = 63). The series is classed as in vivo. Here is the method:
The primary objective was to determine the dose(s) to carry into Phase 3. […] Patients were randomized to one of the four treatments in a 1:1:1:1 ratio and stratified based on prior exposure to nintedanib (<6 months) versus nintedanib-naïve patients. Patients who completed the Double-blind Treatment Period (Part A) were offered participation in the Long-term Extension (Part B). […] For patients who participated in Part B, the follow-up was conducted at the end of Part B. A graphical illustration of an embodiment of the trial design is provided as FIG. 24B.
Safety endpoints included: Adverse events, concomitant medications, clinical laboratory findings (chemistry, hematology, urinalysis), physical examinations, ECGs, and vital signs. These will be summarized descriptively, where appropriate.
Tolerability endpoints included: Frequency of dose modifications (reductions and interruptions), time to first dose modification, (reduction or interruption), duration of adverse events of special interest, time to treatment discontinuation due to an adverse event of special interest and patient reported assessment of IPF symptoms, side-effects, severity, change and satisfaction.
In this study, AEs are reported for all patients from the time of consent until the completion of the Follow-up visit. AEs reported prior to the first dose are denoted as pre-treatment. SAEs are reported for all patients (randomized or not) from the time of consent. AEs reported from the time of consent to confinement on Day 0 were recorded as pre-treatment AEs.
Treatment emergent adverse events (TEAEs) are defined as an AE that occurs following first dose of study medication and were evaluated from the first administration of study drug on Day 1 until the Follow-up visit. […]
This study evaluated in particular the tolerability based on prioritized gastrointestinal adverse events (GI AEs). […]

The target of series [8] is T2, CYP1A2 (Homo sapiens, UniProt P05177).
T2 construct: host or cells: heterologous cell systems (not specified)
T2 sequence (P05177 1-516): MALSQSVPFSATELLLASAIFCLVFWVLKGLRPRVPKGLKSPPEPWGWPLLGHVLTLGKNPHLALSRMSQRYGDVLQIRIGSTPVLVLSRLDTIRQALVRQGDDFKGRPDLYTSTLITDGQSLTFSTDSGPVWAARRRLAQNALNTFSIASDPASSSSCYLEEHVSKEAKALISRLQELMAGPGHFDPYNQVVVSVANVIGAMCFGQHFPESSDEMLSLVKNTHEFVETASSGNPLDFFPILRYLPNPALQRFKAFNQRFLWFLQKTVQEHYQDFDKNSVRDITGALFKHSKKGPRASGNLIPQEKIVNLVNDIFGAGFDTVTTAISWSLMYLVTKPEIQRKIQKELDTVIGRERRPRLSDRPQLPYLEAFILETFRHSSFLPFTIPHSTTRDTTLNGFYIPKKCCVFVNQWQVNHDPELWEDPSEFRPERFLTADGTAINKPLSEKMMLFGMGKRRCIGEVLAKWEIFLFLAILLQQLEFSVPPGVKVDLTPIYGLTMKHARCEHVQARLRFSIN
Description: In vitro stability with recombinant human CYP1A2. It counts as in vitro ADME. The note with it: recombinant human isozyme; read-out: t1/2 following incubation with CYP1A2 (converted). Here is the method: as §1

For series [9] the following is noted: study PIPF-005, 801 mg three times daily (2403 mg/day), healthy older subjects; cited from earlier work.
Series [10] addresses T3, CYP2C19 (Homo sapiens, UniProt P33261).
T3 construct: host or cells: heterologous cell systems (not specified)
Description: In vitro stability with recombinant human CYP2C19. To be noted: recombinant human isozyme; read-out: t1/2 following incubation with CYP2C19 (converted). The series is classed as in vitro ADME. Here is the method: as §1

The test system of series [11] is patients with IPF. To be noted: cited from earlier work.
[12] abbreviates: pooled phase 3 (Noble 2016), one year, vs placebo.
Where [13] appears, read: observational study (Cottin 2018).

Several values for one entry are separate records, joined by “and”; a condition that tells them apart may be missing. Identical values can stand only once. Like-named read-outs stand apart in the source and are kept apart here.

T3 sequence (P33261 whole entry): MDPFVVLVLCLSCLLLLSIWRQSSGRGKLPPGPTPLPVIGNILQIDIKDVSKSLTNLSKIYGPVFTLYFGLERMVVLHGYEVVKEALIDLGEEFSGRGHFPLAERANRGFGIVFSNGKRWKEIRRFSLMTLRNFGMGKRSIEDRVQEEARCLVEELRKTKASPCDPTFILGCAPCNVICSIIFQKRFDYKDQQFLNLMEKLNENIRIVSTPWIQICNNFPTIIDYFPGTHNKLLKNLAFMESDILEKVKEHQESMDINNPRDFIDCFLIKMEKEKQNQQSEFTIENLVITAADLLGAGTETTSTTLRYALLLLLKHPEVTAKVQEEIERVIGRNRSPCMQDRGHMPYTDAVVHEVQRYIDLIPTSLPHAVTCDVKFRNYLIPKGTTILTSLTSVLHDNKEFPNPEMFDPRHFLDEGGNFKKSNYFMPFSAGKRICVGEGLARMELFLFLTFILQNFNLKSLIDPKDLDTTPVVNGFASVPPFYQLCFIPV
T1 sequence (P10635 whole entry): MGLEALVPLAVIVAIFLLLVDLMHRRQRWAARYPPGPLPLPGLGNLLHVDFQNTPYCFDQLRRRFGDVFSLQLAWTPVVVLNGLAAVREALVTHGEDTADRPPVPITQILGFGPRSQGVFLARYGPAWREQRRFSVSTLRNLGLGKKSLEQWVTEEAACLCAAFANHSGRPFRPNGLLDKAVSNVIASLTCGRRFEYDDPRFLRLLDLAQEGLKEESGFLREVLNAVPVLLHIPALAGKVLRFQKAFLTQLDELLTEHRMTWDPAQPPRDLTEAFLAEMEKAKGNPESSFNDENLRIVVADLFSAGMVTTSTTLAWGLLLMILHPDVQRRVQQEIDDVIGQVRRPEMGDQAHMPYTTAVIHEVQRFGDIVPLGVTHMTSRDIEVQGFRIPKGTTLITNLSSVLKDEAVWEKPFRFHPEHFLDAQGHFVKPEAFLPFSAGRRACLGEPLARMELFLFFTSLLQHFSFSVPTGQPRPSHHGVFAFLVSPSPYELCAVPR

For the compound `COC(=O)c1ccc2c(c1)NC(=O)/C2=C(\Nc1ccc(N(C)C(=O)CN2CCN(C)CC2)cc1)c1ccccc1` [Nintedanib, nintedanib, reference compound], in [1] (Day 8-27), the “hydroxyproline content (μg per mg of wet lung) vs bleomycin/vehicle” value is “reduced hydroxyproline content”, the “lung fibrosis scores (histopathology) vs bleomycin/vehicle” value was “did not affect the fibrosis scores”, the “lung sections with fibrosis Score 1” value came out at 37% and the “lung sections with fibrosis Score 2” value is reported as 33%. In addition, in [1] (Day 8-27), the “lung weight ratio (% of body weight) vs bleomycin/vehicle” value is “trend for lower lung weight ratios”, the “mean lung weight vs bleomycin/vehicle” value is “reduced lung weight”, the “median lung fibrosis scores vs bleomycin/vehicle” value is listed as “reduced median fibrosis scores” and the “total left lung hydroxyproline (μg per left lung) vs bleomycin/vehicle” value is given as “lower levels of total hydroxyproline”. Moreover, in series [1] (oral gavage Day 8-27), the body weight gain result is “showed modest improvement after Day 8 and the rate of body weight gain remained slower compared with the other groups”.
With `Cc1ccc(=O)n(-c2ccccc2)c1` [Pirfenidone, pirfenidone, reference compound], the half-life in series [2] was 2.3 h. The “deaths or serious AEs” value in [3] (Part 2) is “No deaths or serious AEs”. Besides, the “TEAEs leading to study discontinuation, subjects” value in series [3] (in vivo) was “one”. Moreover, in series [4] (AUC0-24, parent), the AUC(0-t) was found to be 44100 ng·h/mL. Also, the Cmax in series [4] (Cmax, parent) was found to be 12700 ng/mL. Moreover, in series [5], the “Alanine Aminotransferase (U/L) at Worst Post-Baseline, 3-5 ULN” value was 1 (1.6) n (%); the “Alanine Aminotransferase (U/L) at Worst Post-Baseline, 5-8 ULN” value is recorded as 0 n (%); the “Alanine Aminotransferase (U/L) at Worst Post-Baseline, >8 ULN” value is recorded as 0 n (%); the “Alanine Aminotransferase (U/L) at Worst Post-Baseline, Total (>3 ULN)” value is recorded as 1 (1.6) n (%). In [5], the “Alanine Aminotransferase or Aspartate Aminotransferase (U/L) at Worst Post-Baseline, 3-5 ULN” value was 1 (1.6) n (%); the “Alanine Aminotransferase or Aspartate Aminotransferase (U/L) at Worst Post-Baseline, 5-8 ULN” value was 0 n (%); the “Alanine Aminotransferase or Aspartate Aminotransferase (U/L) at Worst Post-Baseline, >8 ULN” value was 0 n (%); the “Alanine Aminotransferase or Aspartate Aminotransferase (U/L) at Worst Post-Baseline, Total (>3 ULN)” value is 1 (1.6) n (%). In addition, in series [5], the “Aspartate Aminotransferase (U/L) at Worst Post-Baseline, 3-5 ULN” value is 0 n (%); the “Aspartate Aminotransferase (U/L) at Worst Post-Baseline, 5-8 ULN” value is listed as 0 n (%); the “Aspartate Aminotransferase (U/L) at Worst Post-Baseline, >8 ULN” value was 0 n (%); the “Aspartate Aminotransferase (U/L) at Worst Post-Baseline, Total (>3 ULN)” value is listed as 0 n (%). Moreover, the “patients with IPF progression (decline ≥10% in % FVC or death over 52 weeks)” value in series [6] (<90% dose intensity) is 21.6%. Besides, in series [6] (>90% dose intensity), the “patients with IPF progression (decline ≥10% in % FVC or death over 52 weeks)” value was 11.6%. For the same compound, in series [6] (pooled phase 3 (Nathan 2018)), the “rate of permanent dose reductions” value is reported as 31.5% and the “rate of treatment discontinuation” value is recorded as 15.2%. Besides, in [6] (pooled phase 3 (Noble 2016), 1 year, vs placebo), the “reduction of risk of death or disease progression” value is 38%. Moreover, the “FVC change, absolute difference vs placebo” value in series [6] (pooled phase 3 (Noble 2016), 1 year) was 148 mL. Further, in series [6] (setting [12]), the “increase in proportion of patients with no decline in FVC % predicted” value was 59.3% and the “reduction in proportion of patients with ≥10% decline in FVC % predicted or death” value is given as 43.8%. For the same compound, in series [6] (pooled phase 3 (Noble 2016), pirfenidone group), the “mean change from baseline to 1 year in FVC” value was -216 mL. The “Discontinued, Primary Reason: Death” value in [7] is on record as 0 n (%). For the same compound, the half-life in series [8] was 3.18 h. Moreover, in [9], the peak concentration (Cmax) was 11850 ng/mL. In [10], the half-life is 2.13 h. In [11] (setting [13]), the “discontinuations due to adverse events associated with pirfenidone” value is recorded as 27.9%, the “patients on a lower dose by two years” value is recorded as 13.8% and the “patients who had discontinued treatment by two years” value is reported as 64.9%. For the same compound, the “patients still on full dose (2,403 mg/day) by two years” value in [11] (observational study of 1,009 IPF patients (Cottin 2018), FIG. 1B) is 21.3% and 21%.
